PubChem BioAssay (NCI)
Values joined by “and” are separate entries in the source; they are usually repeats but may differ in a detail not shown here. Equal values may be shown once.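 Following 48 hours of exposure in 96-well plates, responses at five concentrations were used to interpolate endpoints linearly. GI50: concentration for 50% inhibition of growth. TGI denotes the concentration required for complete inhibition of growth.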

Columns and labels:
Assay in all cases: NCI tumour cell line growth inhibition, 48 h
786-0 renal = tested on: 786-0 renal
A498 renal = tested on: A498 renal
A549 NSCLC = tested on: A549 NSCLC
ACHN renal = tested on: ACHN renal
BT-549 breast = tested on: BT-549 breast
CAKI-1 renal = tested on: CAKI-1 renal
CCRF-CEM leukemia = tested on: CCRF-CEM leukemia
DLD-1 colon = tested on: DLD-1 colon
DMS 114 small cell lung = tested on: DMS 114 small cell lung
DMS 273 small cell lung = tested on: DMS 273 small cell lung
DU-145 prostate = tested on: DU-145 prostate
EKVX NSCLC = tested on: EKVX NSCLC
HCC-2998 colon = tested on: HCC-2998 colon
HCT-116 colon = tested on: HCT-116 colon
HCT-15 colon = tested on: HCT-15 colon
HL-60(TB) leukemia = tested on: HL-60(TB) leukemia
HOP-18 NSCLC = tested on: HOP-18 NSCLC
HOP-62 NSCLC = tested on: HOP-62 NSCLC
HOP-92 NSCLC = tested on: HOP-92 NSCLC
HS 578T breast = tested on: HS 578T breast
HT29 colon = tested on: HT29 colon
IGROV1 ovarian = tested on: IGROV1 ovarian
KM12 colon = tested on: KM12 colon
LOX IMVI melanoma = tested on: LOX IMVI melanoma
M14 melanoma = tested on: M14 melanoma
M19-MEL melanoma = tested on: M19-MEL melanoma
MALME-3M melanoma = tested on: MALME-3M melanoma
MCF7 breast = tested on: MCF7 breast
MDA-MB-435 = tested on: MDA-MB-435
MDA-N = tested on: MDA-N
MOLT-4 leukemia = tested on: MOLT-4 leukemia
NCI-H226 lung = tested on: NCI-H226 lung
NCI-H460 lung = tested on: NCI-H460 lung
NCI-H522 lung = tested on: NCI-H522 lung
NCI/ADR-RES ovarian = tested on: NCI/ADR-RES ovarian
OVCAR-3 ovarian = tested on: OVCAR-3 ovarian
P388 leukemia = tested on: P388 leukemia
RPMI-8226 leukemia = tested on: RPMI-8226 leukemia
RXF 393 renal = tested on: RXF 393 renal
SF-295 CNS = tested on: SF-295 CNS
SK-MEL-2 melanoma = tested on: SK-MEL-2 melanoma
SK-MEL-28 melanoma = tested on: SK-MEL-28 melanoma
SK-OV-3 ovarian = tested on: SK-OV-3 ovarian
SN12C renal = tested on: SN12C renal
SN12K1 renal = tested on: SN12K1 renal
SNB-19 CNS = tested on: SNB-19 CNS
SNB-75 CNS = tested on: SNB-75 CNS
SR leukemia = tested on: SR leukemia
SW-620 colon = tested on: SW-620 colon
T-47D breast = tested on: T-47D breast
TK-10 renal = tested on: TK-10 renal
U251 CNS = tested on: U251 CNS
UACC-257 melanoma = tested on: UACC-257 melanoma
XF 498 CNS = tested on: XF 498 CNS

## C1CN1c1nc(N2CC2)nc(N2CC2)n1
786-0 renal
  GI50: 1830 nM
  TGI: 17 µM and 16 µM
A498 renal
  TGI: 25.2 µM
A549 NSCLC
  GI50: 4.99 µM
  TGI: 31 µM and 28.3 µM
ACHN renal
  TGI: 20.5 µM
BT-549 breast
  GI50: 8.42 µM
  TGI: 45.1 µM and 19.1 µM
CAKI-1 renal
  GI50: 1870 nM
  TGI: 24.8 µM and 27.5 µM
CCRF-CEM leukemia
  GI50: 195 nM
DLD-1 colon
  TGI: 78.8 µM
DMS 114 small cell lung
  TGI: 23.2 µM
DMS 273 small cell lung
  TGI: 20.5 µM
DU-145 prostate
  GI50: 825 nM
EKVX NSCLC
  GI50: 22.2 µM
  TGI: 55.5 µM and 47.4 µM
HCC-2998 colon
  GI50: 10.4 µM
  TGI: 23.8 µM and 18.3 µM
HCT-116 colon
  TGI: 33.4 µM and 15.6 µM
HCT-15 colon
  GI50: 10.1 µM
  TGI: 50.2 µM and 24.6 µM
HL-60(TB) leukemia
  GI50: 195 nM
  TGI: 24.5 µM and > 100 µM
HOP-18 NSCLC
  TGI: 68.9 µM
HOP-62 NSCLC
  GI50: 5.92 µM
  TGI: 15.7 µM and 30.1 µM
HOP-92 NSCLC
  GI50: 8.04 µM
  TGI: 35.9 µM and 17.7 µM
HS 578T breast
  GI50: 23.4 µM
  TGI: 87.5 µM and 52.8 µM
HT29 colon
  TGI: 64.8 µM and 35.4 µM
IGROV1 ovarian
  GI50: 11.1 µM
  TGI: 33.4 µM and 21.8 µM
KM12 colon
  GI50: 13 µM
  TGI: 42.3 µM and 35.9 µM
LOX IMVI melanoma
  TGI: 24.7 µM and 14.3 µM
M14 melanoma
  GI50: 3.86 µM
  TGI: 23.9 µM and 34.9 µM
M19-MEL melanoma
  TGI: 33 µM
MALME-3M melanoma
  GI50: 13.6 µM
  TGI: 28.2 µM and 22.5 µM
MCF7 breast
  GI50: 1.39 µM
  TGI: 27.1 µM and 28.9 µM
MDA-MB-435
  GI50: 16.5 µM
  TGI: 35.8 µM and 29.9 µM
MDA-N
  GI50: 15 µM
  TGI: 42 µM and 33.3 µM
MOLT-4 leukemia
  TGI: 15.3 µM
NCI-H226 lung
  GI50: 10.8 µM
  TGI: 27.3 µM and 25.7 µM
NCI-H460 lung
  TGI: 17.6 µM
NCI-H522 lung
  TGI: 21 µM and 12.2 µM
NCI/ADR-RES ovarian
  GI50: 3.48 µM
  TGI: 38.6 µM and 12.8 µM
OVCAR-3 ovarian
  TGI: 41.7 µM and 25.8 µM
P388 leukemia
  TGI: 17.3 µM
RPMI-8226 leukemia
  GI50: 15.9 µM
  TGI: 72.6 µM and 29.7 µM
RXF 393 renal
  GI50: 3.32 µM
  TGI: 21.6 µM and 13.5 µM
SF-295 CNS
  GI50: 1310 nM
  TGI: 19.7 µM and 24.9 µM
SK-MEL-2 melanoma
  GI50: 19.8 µM
  TGI: 36.4 µM and 31.3 µM
SK-MEL-28 melanoma
  TGI: 40 µM
SK-OV-3 ovarian
  GI50: 13.9 µM
  TGI: 41.1 µM and 36.6 µM
SN12C renal
  GI50: 4.32 µM
  TGI: 45.3 µM and 41.2 µM
SN12K1 renal
  TGI: 26 µM
SNB-19 CNS
  GI50: 4.55 µM
  TGI: 58.2 µM and > 51.3 µM
SNB-75 CNS
  GI50: 8.99 µM
  TGI: 25.7 µM and 31.5 µM
SR leukemia
  TGI: 19.6 µM
SW-620 colon
  GI50: 7.84 µM
  TGI: 56.3 µM and > 54.9 µM
T-47D breast
  GI50: 8.23 µM and 1.24 µM
  TGI: 76.6 µM and 19.6 µM
TK-10 renal
  GI50: 4.36 µM
  TGI: 79.8 µM and 16.7 µM
U251 CNS
  GI50: 6.6 µM
  TGI: 27.5 µM and > 50.1 µM
UACC-257 melanoma
  GI50: 13.3 µM
  TGI: 31.9 µM and 23 µM
XF 498 CNS
  TGI: 17.2 µM

## C[C@@]1(CO)[C@H](O)CC[C@@]2(C)[C@H]1CC[C@H]1C[C@@H]3C[C@@]12CC[C@@]3(O)COC(=O)CN
786-0 renal
  GI50: 1120 nM
  TGI: 60.8 µM and 108 µM
A498 renal
  GI50: 7.15 µM and 50.9 µM and 8.34 µM
A549 NSCLC
  GI50: 1.81 µM and 15.7 µM and 3.1 µM
  TGI: 76.1 µM and > 500 µM and 182 µM
ACHN renal
  GI50: 186 nM
  TGI: 40.7 µM and 16.5 µM
BT-549 breast
  GI50: 62.7 µM
  TGI: > 241 µM
CAKI-1 renal
  GI50: 2360 nM
  TGI: 78.7 µM
CCRF-CEM leukemia
  GI50: 6560 nM and 777 nM
DLD-1 colon
  GI50: > 500 µM and 104 µM
  TGI: > 500 µM
DMS 114 small cell lung
  TGI: > 500 µM and 170 µM
DMS 273 small cell lung
  GI50: 250 nM
  TGI: 144 µM
DU-145 prostate
  GI50: 2020 nM
  TGI: > 59.8 µM and 75.5 µM
EKVX NSCLC
  GI50: 96.8 µM and 79.3 µM
  TGI: 64.5 µM and > 500 µM and 171 µM
HCC-2998 colon
  GI50: > 500 µM and 72.6 µM
HCT-116 colon
  GI50: 2.03 µM and 19.5 µM and 4.63 µM
  TGI: 65.7 µM and > 500 µM and 155 µM
HCT-15 colon
  TGI: > 500 µM and 231 µM
HL-60(TB) leukemia
  GI50: 2110 nM and 380 nM
HOP-18 NSCLC
  GI50: > 500 µM and 87.4 µM
  TGI: > 500 µM
HOP-62 NSCLC
  GI50: 4.69 µM and 23.3 µM
  TGI: > 78.7 µM and > 500 µM and 147 µM
HOP-92 NSCLC
  GI50: 325 µM
  TGI: 83.4 µM and > 500 µM and 137 µM
HS 578T breast
  GI50: 110 µM
  TGI: > 97.2 µM and 214 µM
HT29 colon
  GI50: 13.2 µM
  TGI: 50.9 µM and 183 µM
IGROV1 ovarian
  TGI: > 500 µM and 181 µM
KM12 colon
  GI50: > 500 µM and 101 µM
  TGI: 73.7 µM and > 500 µM and 238 µM
LOX IMVI melanoma
  GI50: 3.62 µM and 6.65 µM
M14 melanoma
  GI50: 3.99 µM
  TGI: > 79.1 µM and 112 µM
M19-MEL melanoma
  TGI: > 500 µM and 161 µM
MALME-3M melanoma
  TGI: > 500 µM and 189 µM
MCF7 breast
  GI50: 3.17 µM and 21.2 µM and 3.87 µM
MDA-MB-435
  GI50: 34.8 µM
  TGI: > 77.6 µM and 109 µM
MDA-N
  TGI: > 86.9 µM and 180 µM
MOLT-4 leukemia
  GI50: 2550 nM
  TGI: 53.7 µM and 162 µM
NCI-H226 lung
  TGI: > 500 µM and 238 µM
NCI-H460 lung
  GI50: 176 nM and 1370 nM and 317 nM
NCI-H522 lung
  GI50: 14.6 µM and 106 µM and 33.1 µM
  TGI: > 82.2 µM and > 500 µM and 172 µM
NCI/ADR-RES ovarian
  TGI: 79.9 µM and > 500 µM and 163 µM
OVCAR-3 ovarian
  GI50: > 500 µM and 105 µM
  TGI: > 500 µM and 230 µM
P388 leukemia
  TGI: 209 µM
RPMI-8226 leukemia
  GI50: 16.1 µM and 3.35 µM
  TGI: 78.2 µM and > 500 µM and 126 µM
RXF 393 renal
  TGI: 53.6 µM and > 500 µM and 163 µM
SF-295 CNS
  GI50: 770 nM (2×) and 3.44 µM
  TGI: 24.4 µM and 142 µM
SK-MEL-2 melanoma
  GI50: > 500 µM
  TGI: > 89.6 µM and > 500 µM and 177 µM
SK-MEL-28 melanoma
  GI50: 83.9 µM and 150 µM
  TGI: > 500 µM and 252 µM
SK-OV-3 ovarian
  TGI: 99.8 µM and > 500 µM and 186 µM
SN12C renal
  TGI: 65.7 µM and > 500 µM and 183 µM
SN12K1 renal
  GI50: 7.45 µM and 1.49 µM
  TGI: > 500 µM
SNB-19 CNS
  TGI: > 500 µM and 254 µM
SNB-75 CNS
  TGI: 58.3 µM and > 500 µM and 258 µM
SR leukemia
  GI50: 1660 nM
  TGI: 46.5 µM and 47.4 µM
SW-620 colon
  TGI: 59.4 µM and > 500 µM and 220 µM
T-47D breast
  GI50: 41.9 µM
  TGI: > 79.1 µM and 190 µM
TK-10 renal
  GI50: 116 µM
  TGI: > 81.1 µM and 193 µM
U251 CNS
  GI50: 4.35 µM and 7.51 µM
  TGI: 66 µM and 50 µM and 178 µM
UACC-257 melanoma
  GI50: 133 µM and 99.4 µM
  TGI: > 72.2 µM and > 500 µM and 239 µM
XF 498 CNS
  GI50: > 70.5 µM and 54.2 µM and 16.8 µM
  TGI: 347 µM and 176 µM
